Like-named read-outs stand apart in the source and are kept apart here.
How the values were obtained:
[1] = tested on: carbapenem-resistant Acinetobacter baumannii; assay: Chessboard microbroth dilution MIC/FIC, compound 1 in combination with meropenem; format: cell-based; conditions: for MIC: Acinetobacter baumannii; for Compound 1 MIC in combination: with meropenem; for Meropenem MIC in combination: with compound 1
Text: This experiment is designed to determine the minimum inhibitory concentration (MIC) of compound 1 in combination with meropenem against Acinetobacter baumannii (a strain resistant to carbapenem antibiotics) and to calculate the fractional inhibitory concentration (FIC) index.
Test bacteria: A total of 9 strains of Acinetobacter baumannii, all of which are resistant to carbapenem antibiotics (e.g., meropenem), are clinically isolated strains, and are provided by Shanghai Junji Medical Laboratory Co., Ltd.
(§1) According to the recommendation of the Clinical and Laboratory Standards Institute (CLSI), the microbroth dilution method designed by the chessboard method was used to determine the minimum inhibitory concentration (MIC) of compound 1 in combination with meropenem against the above strains, and the fractional inhibitory concentration (FIC) index was calculated.
(§2) Compound 1 was dissolved in dimethyl sulfoxide to obtain a stock solution I with a concentration of 1280 mg/L. The stock solution I was diluted to 512 mg/L with sterile water to obtain a gradient dilution first tube solution I. The gradient dilution first tube solution I was subjected to 1:1 gradient dilution with sterile water to obtain a working solution I with a gradient range of 512 to 0.25 mg/L.
(§3) Meropenem was dissolved in sterile water to obtain a stock solution II with a concentration of 5120 mg/L. The stock solution II was diluted to 1024 mg/L with sterile water to obtain a gradient dilution first tube solution II. The gradient dilution first tube solution II was subjected to 1:1 gradient dilution with sterile water to obtain a working solution II with a gradient range of 1024 to 0.5 mg/L.
50 μL of solution was taken from each tube of working solution I, and added to the drug sensitivity plate row by row starting from the second well of each row (in each row, the concentration of compound 1 increased from the second well to the last well). 50 μL of solution was taken from each tube of working solution II, and added to the drug sensitivity plate column by column starting from the second well of each column (in each column, the concentration of meropenem increased from the second well to the last well). As a result, a chessboard cross with different concentrations of the two drugs was formed (wherein, there was neither compound 1 nor meropenem in the intersection well of the first row and the first column; the wells of the first row except the intersection well only contained compound 1, and the wells of the first column except the intersection well only contained meropenem; except for the above wells, the remaining wells contained […] and meropenem).
According to the above process, the volume of the drug solution in each well containing only one drug of the drug sensitivity plate was 50 μL, thus 50 μL of sterile water was added to each well. 100 μL of sterile water was added to the intersection well of the first row and the first column. After that, 100 μL of bacterial solution (formulated according to step (3)) was added to all the wells of the drug sensitivity plate and mixed.
(§4) (2) The culture medium of the bacterial solution: Cation-Adjusted Mueller-Hinton Broth (CAMHB), a product of BBL, USA, batch number 9015952.
(§5) (3) Formulation method of bacterial solution: According to the direct colony suspension method, the test bacteria cultured overnight were prepared into a 0.5 McFarland turbidity tube using physiological saline. Then, the resulting solution was dilute 100 times with the above culture medium. 100 μL of the resulting bacterial solution was mixed well with the solution (100 μL) in each well of the drug sensitivity plate, and the final inoculation amount was 10^5 CFU/mL.
(§6) (4) Culture conditions: Culturing at 35±2° C. for 20 hours in air.
(1) The experimental results were determined according to the standard of CLSI 2019 M100 29th edition. […]

[2] = tested on: drug-resistant Escherichia coli I (a strain resistant to carbapenem antibiotics); assay: Chessboard microbroth dilution MIC/FIC, compound A in combination with meropenem; format: cell-based; conditions: for MIC: Escherichia coli, read-out: Meropenem MIC alone; for Meropenem MIC in combination: with compound A
Text: This experiment is designed to determine the minimum inhibitory concentration (MIC) of compound A in combination with meropenem against drug-resistant Escherichia coli I (a strain resistant to carbapenem antibiotics) and drug-resistant Escherichia coli II (a strain resistant to fluoroquinolone antibiotics, non-fluoroquinolone antibiotics, aminoglycoside antibiotics, glycopeptide antibiotics and carbapenem antibiotics), and to calculate the fractional inhibitory concentration (FIC) index.
3 strains of drug-resistant Escherichia coli I, namely drug-resistant Escherichia coli 18-W09-093, drug-resistant Escherichia coli 18-W37-025, and drug-resistant Escherichia coli 18-W37-032, are provided by Shanghai Junji Medical Laboratory Co., Ltd. These 3 strains are all resistant to carbapenem antibiotics (e.g., meropenem).
as §1, with “A” for “1”
as §2, with “Compound A” for “Compound 1”
as §3
According to the method in Example 1, a drug sensitive plate was prepared with working solution I and working solution II, and the specific process will not be repeated here.
as §4, §5, §6
(1) The experimental results were determined according to the standard of CLSI 2019 M100 29th edition.
wherein: FIC≤0.5 indicates synergistic effect; 0.5<FIC≤1.0 indicates additive effect; 1<FIC≤2.0 indicates irrelevant effect; and FIC>2 indicates antagonistic effect.

[3] = strain 18-J11-001, compound 1 + meropenem
[4] = strain 18-J11-002, compound 1 + meropenem
[5] = strain 18-J11-034, compound 1 + meropenem
[6] = strain 18-J11-097, compound 1 + meropenem
[7] = strain 18-J15-030, compound 1 + meropenem
[8] = strain 18-J21-095, compound 1 + meropenem
[9] = strain 18-J24-015, compound 1 + meropenem
[10] = strain 18-J40-021, compound 1 + meropenem
[11] = strain 18-J51-052, compound 1 + meropenem

`O=[N+]([O-])c1c(Br)c(Cl)c2cccnc2c1O` [Compound 1, 6-bromo-5-chloro-7-nitroquinolin-8-ol] showed an MIC ([1]; strain 18-J11-001, read-out: Compound 1 MIC alone) of 8 µg/mL, an MIC ([1]; strain 18-J11-002, read-out: Compound 1 MIC alone) of 4 µg/mL and an MIC ([1]; strain 18-J11-034, read-out: Compound 1 MIC alone) of 4 µg/mL. The MIC ([1]; strain 18-J11-097, read-out: Compound 1 MIC alone) was 8 µg/mL, the MIC ([1]; strain 18-J15-030, read-out: Compound 1 MIC alone) was 16 µg/mL and the MIC ([1]; strain 18-J21-095, read-out: Compound 1 MIC alone) was 8 µg/mL. The MIC ([1]; strain 18-J24-015, read-out: Compound 1 MIC alone) was 8 µg/mL, the MIC ([1]; strain 18-J40-021, read-out: Compound 1 MIC alone) was 8 µg/mL and the MIC ([1]; strain 18-J51-052, read-out: Compound 1 MIC alone) was 4 µg/mL. The “change of the MIC of meropenem by the combination” value ([1]; compound 1 + meropenem) was “significantly reduce”, the “effect of the combination (summary of Table 1)” value ([1]; compound 1 + meropenem, strains resistant to carbapenem antibiotics) was “additive effect (0.5<FIC≤1.0 indicates additive effect)” and the FIC index [1, 3] was 0.750. The Results [1, 3] was “Additive”, the “Compound 1 MIC in combination” value ([1]; strain 18-J11-001) was 4 µg/mL and the FIC index [1, 4] was 0.750. The Results [1, 4] was “Additive”, the “Compound 1 MIC in combination” value ([1]; strain 18-J11-002) was 2 µg/mL and the FIC index [1, 5] was 0.750. For the same compound, the Results [1, 5] was “Additive”, the “Compound 1 MIC in combination” value ([1]; strain 18-J11-034) was 2 µg/mL and the FIC index [1, 6] was 0.750. For the same compound, the Results [1, 6] was “Additive”, the “Compound 1 MIC in combination” value ([1]; strain 18-J11-097) was 4 µg/mL and the FIC index [1, 7] was 0.625. The Results [1, 7] was “Additive”, the “Compound 1 MIC in combination” value ([1]; strain 18-J15-030) was 8 µg/mL and the FIC index [1, 8] was 0.750. For the same compound, the Results [1, 8] was “Additive”, the “Compound 1 MIC in combination” value ([1]; strain 18-J21-095) was 4 µg/mL and the FIC index [1, 9] was 0.750. For the same compound, the Results [1, 9] was “Additive”, the “Compound 1 MIC in combination” value ([1]; strain 18-J24-015) was 2 µg/mL and the FIC index [1, 10] was 0.750. The Results [1, 10] was “Additive”, the “Compound 1 MIC in combination” value ([1]; strain 18-J40-021) was 4 µg/mL and the FIC index [1, 11] was 0.625. The Results [1, 11] was “Additive” and the “Compound 1 MIC in combination” value ([1]; strain 18-J51-052) was 2 µg/mL.

`C[C@@H](O)[C@H]1C(=O)N2C(C(=O)O)=C(S[C@@H]3CN[C@H](C(=O)N(C)C)C3)[C@H](C)[C@H]12` [Meropenem, reference compound] showed an MIC ([1]; strain 18-J11-001, read-out: Meropenem MIC alone) of 32 µg/mL, an MIC ([1]; strain 18-J11-002, read-out: Meropenem MIC alone) of 64 µg/mL and an MIC ([1]; strain 18-J11-034, read-out: Meropenem MIC alone) of 64 µg/mL. It also gave an MIC ([1]; strain 18-J11-097, read-out: Meropenem MIC alone) of 64 µg/mL, an MIC ([1]; strain 18-J15-030, read-out: Meropenem MIC alone) of 64 µg/mL and an MIC ([1]; strain 18-J21-095, read-out: Meropenem MIC alone) of 64 µg/mL. For the same compound, the MIC ([1]; strain 18-J24-015, read-out: Meropenem MIC alone) was 64 µg/mL, the MIC ([1]; strain 18-J40-021, read-out: Meropenem MIC alone) was 64 µg/mL and the MIC ([1]; strain 18-J51-052, read-out: Meropenem MIC alone) was 32 µg/mL. The “Meropenem MIC in combination” value ([1]; strain 18-J11-001) was 8 µg/mL, the “Meropenem MIC in combination” value ([1]; strain 18-J11-002) was 16 µg/mL and the “Meropenem MIC in combination” value ([1]; strain 18-J11-034) was 16 µg/mL. The “Meropenem MIC in combination” value ([1]; strain 18-J11-097) was 16 µg/mL, the “Meropenem MIC in combination” value ([1]; strain 18-J15-030) was 8 µg/mL and the “Meropenem MIC in combination” value ([1]; strain 18-J21-095) was 16 µg/mL. For the same compound, the “Meropenem MIC in combination” value ([1]; strain 18-J24-015) was 32 µg/mL, the “Meropenem MIC in combination” value ([1]; strain 18-J40-021) was 16 µg/mL and the “Meropenem MIC in combination” value ([1]; strain 18-J51-052) was 4 µg/mL. It also gave an MIC ([2]; strain 18-W09-093) of 256 µg/mL, an MIC ([2]; strain 18-W37-025) of 128 µg/mL and an MIC ([2]; strain 18-W37-032) of 128 µg/mL. For the same compound, the “Meropenem MIC in combination” value ([2]; strain 18-W09-093) was 2 µg/mL, the “Meropenem MIC in combination” value ([2]; strain 18-W37-025) was 1 µg/mL and the “Meropenem MIC in combination” value ([2]; strain 18-W37-032) was 4 µg/mL.
